The values below come from ChEMBL document CHEMBL1201862, “PubChem BioAssay data set” (2004).

Test systems include MOLT-4; M14; TK-10; HT-29; SW-620; UACC-62; HOP-62; OVCAR-5; NCI-H460; IGROV-1; HCC 2998; CCRF-CEM; COLO 205; SK-MEL-28; OVCAR-4; OVCAR-8; SR; SNB-75; OVCAR-3.
Common to all, as to assay: DTP human tumour cell line panel, 48 h

Each structure is given as a SMILES string.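 These data come from cells grown in 96-well plates and exposed to compound for 48 hours at five concentrations. At the GI50, growth is halved.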 The source made the active and inactive calls. Cut-off read from the data, not from the text of the source: active = GI50 up to about 1.1 µM and inactive = higher.

On to `COC(=O)C(=O)C(C(=O)C(=O)Nc1cccc(C(C)=O)c1)c1nc2ccc([N+](=O)[O-])cc2nc1O` (configuration not stated), for which the GI50 with MOLT-4, in the test with M14, with TK-10, in the test on HT-29, in the test on SW-620 and with UACC-62 was > 100 µM (inactive) each time. Also, the GI50 with HOP-62, in the test with OVCAR-5, in the test with NCI-H460, with IGROV-1, in the test with HCC 2998 and in the test on CCRF-CEM was > 100 µM (inactive) in each case. The GI50 in the test on COLO 205, in the test with SK-MEL-28, in the test on OVCAR-4, with OVCAR-8 and in the test on SR was > 100 µM (inactive) in each case.
Regarding `COc1ccccc1OCc1nnc(SCC(=O)O)n1-c1ccccc1`, the GI50 with MOLT-4, with M14, with TK-10, in the test with HT-29, with UACC-62 and in the test with HOP-62 was > 100 µM (inactive) throughout. Besides, the GI50 in the test with OVCAR-5, in the test on NCI-H460, in the test with SNB-75, with IGROV-1, in the test with HCC 2998 and in the test on OVCAR-3 was > 100 µM (inactive) throughout. For the same compound, the GI50 in the test on CCRF-CEM, with COLO 205, in the test with SK-MEL-28, in the test on OVCAR-4, with OVCAR-8 and with SR was > 100 µM (inactive) throughout.
Take `CN/N=C(/CC(=O)c1sc(NNC(C)=O)nc1C)C(=O)Nc1ccc(OC)cc1OC`: the GI50 with MOLT-4, in the test with M14, in the test with TK-10, in the test with HT-29, in the test with SW-620 and in the test on UACC-62 was > 100 µM (inactive) each time. The GI50 in the test with HOP-62, with OVCAR-5, with NCI-H460, in the test on IGROV-1, in the test with HCC 2998 and in the test on OVCAR-3 was > 100 µM (inactive) throughout. Also, the GI50 in the test on CCRF-CEM, in the test on COLO 205, in the test with SK-MEL-28, in the test on OVCAR-4, in the test on OVCAR-8 and in the test with SR was > 100 µM (inactive) throughout.
Consider `CCOC(=O)C1OC(=O)CC1C1(C(=O)OCC)C=CC(=O)O1` (configuration not stated), for which the GI50 with MOLT-4, in the test on M14, with TK-10, in the test with HT-29, in the test on SW-620 and in the test on UACC-62 was > 100 µM (inactive) each time. In addition, the GI50 (commonly the concentration at which growth is held to half of that of the control) in the test on HOP-62 is > 100 µM (inactive); with OVCAR-5, > 100 µM (inactive); in the test with NCI-H460 it was 17.9 µM (inactive); with SNB-75, > 100 µM (inactive); in the test with IGROV-1 it was > 100 µM (inactive); with HCC 2998 it was > 100 µM (inactive). For the same compound, the GI50 in the test on OVCAR-3 is > 100 µM (inactive); in the test on CCRF-CEM, 59.7 µM (inactive); in the test with COLO 205, > 100 µM (inactive); with SK-MEL-28, > 100 µM (inactive); in the test on OVCAR-4 it was > 100 µM (inactive); in the test with OVCAR-8, > 100 µM (inactive). The GI50 in the test with SR was > 100 µM (inactive).
With `Cc1ccc(C(O)/C(=N/N)c2nc3ccc([N+](=O)[O-])cc3nc2O)cc1` (configuration not stated), the GI50 in the test on MOLT-4 was > 100 µM (inactive); in the test with M14 it was > 100 µM (inactive); in the test with TK-10, > 100 µM (inactive); in the test on HT-29, > 100 µM (inactive); with SW-620, > 100 µM (inactive); in the test with UACC-62, 46.8 µM (inactive). Moreover, the GI50 in the test on HOP-62 was > 100 µM (inactive); with OVCAR-5, > 100 µM (inactive); in the test with NCI-H460, > 100 µM (inactive); in the test on SNB-75, 43.7 µM (inactive); in the test on IGROV-1 it was > 100 µM (inactive); in the test on HCC 2998, 4.66 µM (inactive). Moreover, the GI50 is > 100 µM (inactive) with OVCAR-3; 13.5 µM (inactive) in the test with CCRF-CEM; > 100 µM (inactive) with COLO 205; > 100 µM (inactive) with SK-MEL-28; > 100 µM (inactive) in the test with OVCAR-4; > 100 µM (inactive) in the test with OVCAR-8. The GI50 in the test with SR was 58.7 µM (inactive).
In the case of `O=C(N/N=C(/CCN1CCCC1)CC(c1ccccc1)c1c(O)c2ccccc2oc1=O)c1ccncc1` (configuration not stated), the GI50 was 94.6 µM (inactive) with M14; > 100 µM (inactive) with TK-10; > 100 µM (inactive) in the test with HT-29; 41.2 µM (inactive) with SW-620; > 100 µM (inactive) with UACC-62; > 100 µM (inactive) in the test with HOP-62. Moreover, the GI50 with OVCAR-5 was > 100 µM (inactive); with NCI-H460, > 100 µM (inactive); in the test on SNB-75 it was > 100 µM (inactive); with IGROV-1, > 100 µM (inactive); in the test on HCC 2998, 0.171 µM (active); in the test with OVCAR-3, > 100 µM (inactive). Also, the GI50 with CCRF-CEM is 50.8 µM (inactive); in the test with OVCAR-4 it was > 100 µM (inactive); in the test on OVCAR-8 it was > 100 µM (inactive); in the test on SR, 15.4 µM (inactive).
With `COc1cc([C@@H]2OCC3C(c4ccc5c(c4)OCO5)OCC32)cc(OC)c1OC` (some centres not stated), the GI50 with MOLT-4 is 45.5 µM (inactive); in the test on M14, > 100 µM (inactive); in the test with HT-29 it was > 100 µM (inactive); in the test with SW-620 it was > 100 µM (inactive); with HOP-62, > 100 µM (inactive); in the test with OVCAR-5 it was > 100 µM (inactive). Besides, the GI50 in the test with NCI-H460 is > 100 µM (inactive); in the test with SNB-75, 4.33 µM (inactive); in the test on IGROV-1, > 100 µM (inactive); in the test with HCC 2998, > 100 µM (inactive); in the test with OVCAR-3, > 100 µM (inactive); with CCRF-CEM, > 100 µM (inactive). Moreover, the GI50 in the test with COLO 205 is > 100 µM (inactive); with SK-MEL-28, > 100 µM (inactive); with OVCAR-4, > 100 µM (inactive); with OVCAR-8 it was 81.7 µM (inactive); in the test with SR, 91.6 µM (inactive).
Regarding `CN1C(=O)CSC1=S` [3-METHYL-RHODANINE], the GI50 in the test with MOLT-4, in the test on M14, with TK-10, in the test with HT-29, in the test with SW-620 and in the test on UACC-62 was > 100 µM (inactive) each time. The GI50 in the test on HOP-62, in the test on OVCAR-5, in the test on NCI-H460, in the test on SNB-75, in the test on IGROV-1 and in the test with OVCAR-3 was > 100 µM (inactive) throughout. The GI50 in the test on CCRF-CEM, in the test on COLO 205, with SK-MEL-28, in the test on OVCAR-4, in the test with OVCAR-8 and in the test with SR was > 100 µM (inactive) throughout.
